Data on 3 compounds can be found in publication PMC3098941 (ACS chemical biology, 2011).

Holding throughout (format): binding
The target of assay [1] is T1, Aurora A (Homo sapiens, UniProt O14965).
T1 sequence (O14965 123-380): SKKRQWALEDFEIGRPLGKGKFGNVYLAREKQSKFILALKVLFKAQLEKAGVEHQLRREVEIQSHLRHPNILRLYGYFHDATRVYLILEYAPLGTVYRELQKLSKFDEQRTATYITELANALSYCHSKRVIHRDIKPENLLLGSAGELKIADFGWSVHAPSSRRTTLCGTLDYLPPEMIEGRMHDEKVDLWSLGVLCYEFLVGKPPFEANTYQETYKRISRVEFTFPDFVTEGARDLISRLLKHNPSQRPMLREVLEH
Put plainly: ANS fluorescence titration of Aurora A. The following applies: read-out: apparent Kd of ANS for Aurora A; Aurora A 5.8 μM, slit widths 10/10.

Assay [2] concerns the target Akt1 (Homo sapiens, UniProt P31749). Nature of the assay: ANS fluorescence titration of Akt. The following applies: up to 100 μM ANS.
In assay [3] the target is Rock1 (Homo sapiens, UniProt Q13464). Put plainly: ANS fluorescence titration of Rock 1. Particulars: up to 100 μM ANS.
The target of assay [4] is CDK2-ANS complex (Homo sapiens, UniProt P24941). Nature of the assay: Quenching of CDK2-ANS fluorescence by ligands. Particulars: 50 μM ANS; for effect on CDK2-ANS fluorescence yield: concentrations as high as 300 μM, 1.6 μM CDK2.

Chain of Rock1 (Q13464 5-415): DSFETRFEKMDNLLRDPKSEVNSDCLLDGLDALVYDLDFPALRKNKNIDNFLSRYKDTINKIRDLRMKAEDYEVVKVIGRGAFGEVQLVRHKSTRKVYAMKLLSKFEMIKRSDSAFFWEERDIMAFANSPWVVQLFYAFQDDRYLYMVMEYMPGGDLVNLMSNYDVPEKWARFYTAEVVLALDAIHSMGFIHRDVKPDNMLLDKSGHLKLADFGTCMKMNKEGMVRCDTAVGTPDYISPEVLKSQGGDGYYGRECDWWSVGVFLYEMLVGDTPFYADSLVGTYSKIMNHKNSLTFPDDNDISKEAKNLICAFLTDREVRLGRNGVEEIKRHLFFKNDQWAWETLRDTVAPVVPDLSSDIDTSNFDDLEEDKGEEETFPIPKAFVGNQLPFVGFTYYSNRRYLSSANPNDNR
Chain of Akt1 (P31749 whole entry): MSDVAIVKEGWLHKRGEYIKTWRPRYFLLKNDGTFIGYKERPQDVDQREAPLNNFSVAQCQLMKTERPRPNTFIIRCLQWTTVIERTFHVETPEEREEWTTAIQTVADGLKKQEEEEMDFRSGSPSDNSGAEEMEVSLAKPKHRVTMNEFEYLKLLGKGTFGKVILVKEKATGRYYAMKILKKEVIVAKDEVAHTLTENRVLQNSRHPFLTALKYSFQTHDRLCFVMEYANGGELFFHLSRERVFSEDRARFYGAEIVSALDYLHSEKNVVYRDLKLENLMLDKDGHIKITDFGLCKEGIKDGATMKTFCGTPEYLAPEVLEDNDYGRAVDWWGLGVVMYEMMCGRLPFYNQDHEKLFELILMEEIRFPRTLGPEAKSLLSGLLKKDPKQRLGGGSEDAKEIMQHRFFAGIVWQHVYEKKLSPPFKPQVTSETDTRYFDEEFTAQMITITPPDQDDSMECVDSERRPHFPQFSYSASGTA

Regarding `O=S(=O)(O)c1cccc2cccc(Nc3ccccc3)c12` [ANS, 8-anilino-1-naphthalene sulfonate], the Kd in assay [1] is 54 µM. In assay [2], the “saturation of ANS fluorescence with Akt” value is reported as “saturation was not reached”. Besides, the “saturation of ANS fluorescence with Rock 1” value in assay [3] is given as “saturation was not reached”.

In the case of `COc1ccc(O)c(-c2nc(N)nc(N)n2)c1` [JWS648], the “effect on CDK2-ANS fluorescence yield” value in assay [4] is given as “only marginally affected”.

For `Nc1ncnc2c1ncn2[C@@H]1O[C@H](COP(=O)(O)OP(=O)(O)OP(=O)(O)O)[C@@H](O)[C@H]1O` [ATP], the “effect on CDK2-ANS fluorescence yield” value in assay [4] was “only marginally affected”. Besides, the “effect on CDK2-ANS fluorescence” value in assay [4] (concentrations up to 100 μM) is recorded as “did not appear to affect”.
